Results: patent US20220178944A1, “METHODS FOR IDENTIFYING DIFFERENTIAL HISTONE RETENTION FOR EPIGENETIC ALTERATIONS IN GERMLINE DNA OF ANIMALS” (Washington State University, priority 2020, published 2022)

Experiments:
Sprague Dawley rats = test: Histopathology and disease classification, F3 generation atrazine lineage males; format: in vivo, rat
Protocol: Female and male rats of an outbred strain Hsd:Sprague Dawley SD (Harlan) at 70 to 100 days of age were fed ad lib with a standard rat diet and ad lib tap water. Timed-pregnant females on days 8 through 14 of gestation were administered daily intraperitoneal injections of atrazine (25 mg/kg BW/day dissolved in PBS) (Chem Service, Westchester Pa.) or dimethyl sulfoxide (DMSO) or as previously described. Twenty-five mg/kg for atrazine is 4% of rat oral LD50 and 50% of NOAEL.
The gestating female rats treated were designated as the F0 generation. F1-F3 generation control and atrazine lineages were housed in the same room and racks with lighting, food and water.
Rats were euthanized at 12 months of age by CO2 inhalation and cervical dislocation for tissue harvest. Testis, prostate, ovary, kidney, and gonadal fat pads were fixed in Bouin's solution (Sigma) followed by 70% ethanol, then processed for paraffin embedding and hematoxylin, and eosin (H & E) staining by standard procedures for histopathological examination. Paraffin five micron sections were processed and stained (Nationwide Histology, Spokane Wash., USA).
Full necropsies were performed as required on animals that died prior to the time of scheduled sacrifice at one year and tumor classifications were performed.
Upon dissection a brief examination of abdominal and thoracic organs was performed to look for obvious abnormalities. The tissues evaluated histologically were selected from previous literature showing them to have pathology in transgenerational models, with an emphasis on reproductive organs. Histopathology readers were trained to recognize the specific abnormalities evaluated for this study in rat testis, ventral prostate and kidney (see below). Two different readers initially evaluated the tissues. […] Readers were blinded to the exposure groups. A set of quality control (QC) slides was generated for each tissue and was read by each reader prior to evaluating any set of experimental slides. These QC slide results are monitored for reader accuracy and concordance.
Testis histopathology criteria included the presence of vacuoles in the seminiferous tubules, azoospermic atretic seminiferous tubules, and ‘other’ abnormalities including sloughed spermatogenic cells in the center of the tubule and a lack of a tubule lumen. Prostate histopathology criteria included the presence of vacuoles in the glandular epithelium, atrophic glandular epithelium and hyperplasia of prostatic gland epithelium (FIG. 25). Kidney histopathology criteria included reduced size of glomerulus, thickened Bowman's capsule, and the presence of proteinaceous fluid-filled cysts >50 μm in diameter (FIG. 25). A cut-off was established to declare a tissue ‘diseased’ based on the mean number of histopathological abnormalities plus two standard deviations from the mean of control group tissues, as assessed by each of the individual readers. This number (i.e. greater than two standard deviations) was used to classify rats into those with and without testis, prostate, or kidney disease in the F3 generation lineage. A rat tissue section was finally declared ‘diseased’ only when at least two of the three readers marked the same tissue section ‘diseased’.
Lean phenotype was assessed with a decrease in adipocyte size (area), body mass index (BMI) and abdominal adiposity. BMI was calculated with weight (g)/length (cm)^2 with the length of the animal measured from the nose to the base of the tail. Gonadal fat pad slides were imaged using a Nikon Eclipse E800 microscope (10×) with an AVT Prosilica GE1050C Color GigE camera. Five field of view image captures were taken per slide in varying parts of the fat pad. Adipocyte size was measured converting pixels into microns using Adiposoft. Measurements of the 20 largest cells from each image for a total of 100 were averaged as hypertrophic cells are the most metabolically relevant and susceptible to cell death. […]

[1] = Glyphosate metabolism turnover (half-life); format: in vivo; conditions: worked out from 2-4 half-lives per 24-hour period
sperm DNA methylation = test: Sperm differential DNA methylation regions (DMRs), MeDIP-Seq, glyphosate versus control lineage; format: in vivo, rat; conditions: F3 generation males, edgeR p<1e-05
Text: (§1) Outbred Sprague Dawley SD male and female rats were fed a standard diet with water ad lib and mated. […] Female and male rats of an outbred strain Hsd:Sprague Dawley SD (Harlan) at 70 to 100 days of age were fed ad lib with a standard rat diet and ad lib tap water.
(§2) The gestating female rats treated were designated as the F0 generation. Breeding for each generation occurred at 70-90 days and 5 different litters were generated with no cousin or sibling breeding to avoid any inbreeding artifacts. Litters were culled to 10 pups (5 males and 5 females) between days 3-5 of birth to avoid litter effects. […] The F3 generation males were aged to 1 year of age for pathology analysis.
Briefly, the epididymis was dissected free of fat and connective tissue, then, after cutting open the cauda, placed into 6 ml of phosphate buffer saline (PBS) for 20 minutes at room temperature. Further incubation at 4° C. will immobilize the sperm. The tissue was then minced, the released sperm pelleted at 4° C. 3,000×g for 10 min, then resuspended in NIM buffer and stored at −80° C. for further processing.
An appropriate amount of rat sperm suspension was used for DNA extraction. […]
Genomic DNA was sonicated and run on 1.5% agarose gel for fragment size verification. […] DNA concentration was measured in Qubit (Life Technologies) with the ssDNA kit (Molecular Probes Q10212). […]

[2] = tested on: sperm histone H3 retention sites; test: Sperm differential histone retention regions (DHRs), histone H3 ChIP-Seq, glyphosate versus control lineage; format: in vivo, rat; conditions: F3 generation males; F0 25 mg/kg/day i.p. gestation days 8-14; edgeR p<1e-05
Text: as §1, §2
Histone chromatin immunoprecipitation with genomic DNA was performed. Individual rat sperm were collected, and the sperm counts were determined for each individual. A sonication of 10 seconds was performed for each sperm sample to remove any somatic cell contamination using a Sonic Dismembrator Model 300 (Thermo Scientific Fisher, USA) then centrifuged 1800×g for 5 minutes at 4° C. then resuspended and counted individually on a Neubauer counting chamber (Propper manufacturing Co., Inc., New York, USA). The sperm samples were reconstituted up to 1 ml with PBS (phosphate buffered saline). […]

[3] = cited from earlier work
[4] = in vivo; cited from earlier work
[5] = F3 generation atrazine lineage males, 1 year of age, # evaluated 55

SMILES	prevalence of transgenerational lean pathology in the exposed population (Sprague Dawley rats; F3 generation atrazine lineage)	# affected, Kidney disease (Sprague Dawley rats; [5])	# affected, Lean (Sprague Dawley rats; [5])	# affected, Obese (Sprague Dawley rats; [5])	# affected, Prostate disease (Sprague Dawley rats; [5])	# affected, Testis disease (Sprague Dawley rats; [5])	# affected, Tumor (Sprague Dawley rats; [5])	# affected, Puberty Late (Sprague Dawley rats; F3 generation atrazine lineage males, # evaluated 55)	# affected, Puberty Early (Sprague Dawley rats; F3 generation atrazine lineage males, F0 25 mg/kg/day i.p. gestation days 8-14, # evaluated 55)	daily decrease of concentration during the transient exposure period [1]	total number of sperm DMRs, control versus glyphosate (All Window) (sperm DNA methylation; F0 25 mg/kg/day i.p. gestation days 8-14)	number of sperm DMRs with multiple neighboring 1000 bp windows, control versus glyphosate (sperm DNA methylation)	number of sperm DHRs, glyphosate versus control [2]	No Observational Adverse Effect Level (NOAEL) dose ([3]; direct exposure, mammalian rat model)	No Observable Adverse Effect Level (NOAEL) exposure ([3]; rat, in vivo)	half-life (metabolism turnover) [4]
CCNc1nc(Cl)nc(NC(C)C)n1 [atrazine]	nearly a third of the animals	8	15	4	4	12	1	10	0	–	–	–	–	–	–	–
O=C(O)CNCP(=O)(O)O [glyphosate]	–	–	–	–	–	–	–	–	–	75-90%	340	11	836	50 mg/kg per day	50 mg/kg/day	5 to 10 h
